{"source": "patent US12091561B2", "about": "“Recording method and recording apparatus” (Seiko Epson Corporation, priority 2021, dated 2024)"}
{"procedure": "The solubility is measured as described below. A predetermined amount of a compound is mixed with 100 g of water in an environment at 25° C. and is then stirred for 30 minutes. […] As described above, when a predetermined amount of the compound is mixed with 100 g of water, the maximum predetermined amount which is judged to be dissolved is used as the solubility."}
{"molecule": "CC(O)CO", "note": "(stereo not drawn) [PROPYLENE GLYCOL, propylene glycol]", "SOLUBILITY [g/100 g OF WATER]": "∞"}
{"molecule": "CC(C)(O)CCC(C)(C)O", "note": "[2,5-dimethyl-2,5-hexanediol]", "SOLUBILITY [g/100 g OF WATER]": "14 g/100 g OF WATER"}
{"molecule": "CC(C)(CO)CO", "note": "[NEOPENTYL GLYCOL, neopentyl glycol]", "SOLUBILITY [g/100 g OF WATER]": "80 g/100 g OF WATER"}
{"molecule": "O=C1CCCCCN1", "note": "[ε-CAPROLACTAM, ε-caprolactam]", "SOLUBILITY [g/100 g OF WATER]": ">100 g/100 g OF WATER"}
{"molecule": "OC1CCCCC1O", "note": "(stereo not drawn) [1,2-CYCLOHEXANEDIOL, 1,2-cyclohexanediol]", "SOLUBILITY [g/100 g OF WATER]": ">100 g/100 g OF WATER"}
{"molecule": "CC(C)(O)C(C)(C)O", "note": "[PINACOL, pinacol]", "SOLUBILITY [g/100 g OF WATER]": "∞"}
